Measurements from ChEMBL document CHEMBL4007495, “Substrate and inhibitor specificity of kynurenine monooxygenase from Cytophaga hutchinsonii” (Bioorg Med Chem Lett, 2017).
Activity calls are given as the source filed them. No cut-off for these calls is given here.

Columns and labels:
[1] = Competitive inhibition of Cytophaga hutchinsonii KMO using 5-Br-kynurenine as substrate assessed as decrease in NADPH consumption by UV/Vis spectrophotometer
Cytophaga hutchinsonii [2] = experiment: Activity at Cytophaga hutchinsonii KMO assessed as NADPH consumption by UV/Vis spectrophotometer
Cytophaga hutchinsonii [3] = experiment: Ratio of Kcat to Km for Cytophaga hutchinsonii KMO
Cytophaga hutchinsonii [4] = experiment: Activity at Cytophaga hutchinsonii KMO at 0.2 mM after 30 mins by HPLC method
Cytophaga hutchinsonii [5] = experiment: Activity at Cytophaga hutchinsonii KMO by ESI-LC/MS method

Row | Ki [1] | Km (Cytophaga hutchinsonii [2]) | kcat (Cytophaga hutchinsonii [2]) | kcat/Km (Cytophaga hutchinsonii [3]) | Compound | also measured
1 | 1000 µM | – | – | – | COc1ccc(C(=O)NCC(=O)O)cc1OC | –
2 | 10.2 µM | – | – | – | Cc1cc(Br)cc(C(=O)CC(N)C(=O)O)c1N (stereo not drawn) | –
3 | 13.8 µM | – | – | – | Nc1c(Cl)cccc1C(=O)CC(N)C(=O)O (stereo not drawn) | –
4 | – | 67 µM | 2 s⁻¹ | 5.3 ×10⁴ /M/s | Nc1ccccc1C(=O)C[C@H](N)C(=O)O | –
5 | – | 2 µM | 0.8 s⁻¹ | 4 ×10⁵ /M/s | Nc1ccc(Cl)cc1C(=O)C[C@H](N)C(=O)O | –
6 | – | 4.5 µM | 0.6 s⁻¹ | 1.3 ×10⁵ /M/s | Nc1ccc(Br)cc1C(=O)C[C@H](N)C(=O)O | Activity (Cytophaga hutchinsonii [4]): Active; Activity (Cytophaga hutchinsonii [5]): Active
7 | 8.6 µM | – | – | – | Cc1cccc(C(=O)CC(N)C(=O)O)c1N (stereo not drawn) | –
8 | 34 µM | – | – | – | O=C(O)CNC(=O)c1ccc(Cl)c(Cl)c1 | –

Row | Compound | Ki [1] | Km (Cytophaga hutchinsonii [2]) | kcat (Cytophaga hutchinsonii [2]) | kcat/Km (Cytophaga hutchinsonii [3]) | also measured
9 | Nc1c(Cl)cc(Br)cc1C(=O)CC(N)C(=O)O (stereo not drawn) | 11 µM | – | – | – | –
10 | Nc1c(Br)cc(Br)cc1C(=O)C[C@H](N)C(=O)O | 1.5 µM | – | – | – | –
